According to patent US8703767B2, “Substituted N-(3-(pyrimidin-4-yl)phenyl)acrylamide analogs as tyrosine receptor kinase BTK inhibitors” (University of Utah Research Foundation, priority 2011, dated 2014):

What was measured:
wild-type EGFR (ErbB1) = wild-type EGFR (ErbB1) (Homo sapiens (Human), UniProt P00533); test: LanthaScreen Eu Kinase Binding Assay, wild-type EGFR; conditions: tracer displacement
Experimental: (§1) Based on the results obtained in the foregoing experiment, representative compounds (N-(3-(5-chloro-2-((4-morpholinophenyl)amino)pyrimidin-4-yl)phenyl)acrylamide and N-(3-(6-((4-morpholinophenyl)amino)-1H-pyrazolo[3,4-d]pyrimidin-4-yl)phenyl)acrylamide) were assayed against wild-type and a mutant form (T790M) of EGFR. The compound activity against these kinases was determined using LanthaScreen™ Eu Kinase Bindng Assay (Invitrogen division of Life Technologies, Inc., Grand Island, N.Y.). The assay measures the activity of a compound to bind and displace a proprietary, Alexa Fluor® 647-labeled, ATP-competitive kinase inhibitor scaffold (kinase tracer) to EGFR.

[1] = tested on: OPM2 cells overexpressing BTK; test: Cell viability assay in OPM2 cells overexpressing BTK; type: cell-based; conditions: Homo sapiens, OPM-2, presence of overexpressed BTK
Experimental: (§2) The cells were grown as described above, and for the assay cells were freshly harvested and then were plated in […] of appropriate media (as described above) at a density of 1000 cells per well in standard solid white-walled 384-well plates. Cells were allowed to attach by incubation overnight at 37° C. and 5% CO2. Test compounds were diluted to 10× concentrations in the appropriate media for the cell used (containing 3% DMSO) and […] of these dilutions were appropriate wells containing the cells. Test compounds were typically tested in triplicate (i.e. a given concentration of compound was assayed in triplicate wells). The plates containing the drug-treated cells and appropriate controls were incubated for 96 hours. At the end of the incubation, […] of ATP-lite (PerkinElmer, Inc., Waltham, Mass.) reagent were added to each well and luminescence signal was measured on an EnVision microplate reader.
(§3) The compounds were assessed in a cell-viability assay in OPM2 cells that either expressed endogenous levels of BTK or overexpressed BTK from an expression construct. […] Cell viability or proliferation was determined using the ATPLite Luminescence Assay (PerkinElmer, Inc., Waltham, Mass.); a decrease in luminescence activity correlates with a decrease in cell viability or proliferation.

OPM2 cells = test: Cell viability assay in OPM2 cells with endogenous levels of BTK; type: cell-based; conditions: Homo sapiens, OPM-2, absence of overexpressed BTK
Experimental: as §2, §3

[2] = Pharmacokinetic and bone marrow distribution study; type: in vivo; conditions: CD1 mice, 5 mg/kg iv
Experimental: To determine the ability of a disclosed compound, N-(3-(5-chloro-2-((4-morpholinophenyl)amino)pyrimidin-4-yl)phenyl)acrylamide, to partition to the bone, a pharmacokinetic study in mice was carried out and coupled with a bone marrow distribution study (see FIG. 18). Briefly, CD1 mice were dosed intravenously (“iv”) with 5 mg/kg of the test compound and three animals per time point (5 min to 8 hrs) were sacrificed. Blood (plasma) and bone marrow tissue (femur) were collected from each animal and analyzed by LC/MS for standard PK parameters. […] The baseline distribution to the bone marrow of the compound was also determined.

[3] = tested on: Tec family of kinase, as well as EGFR and ErbB4; test: Kinase profiling against a panel of 40 protein kinases; type: biochemical; conditions: 200 nM of test compound, ATP at Km apparent
Experimental: The specificity of kinase inhibition was assessed with a representative compound, N-(3-(5-chloro-2-((4-morpholinophenyl)amino)pyrimidin-4-yl)phenyl)acrylamide, by determining the activity of this test compound against a panel of protein kinases. Kinase profiling was performed against a focus panel of kinases relevant to BTK and the Tec family of protein kinases. […] The results from this screen confirmed good activity against the Tec family of kinase, as well as EGFR and ErbB4. These later two kinases are known to have a cysteine residue in a position suitable for reaction with the Michaels acceptor of the disclosed compounds.

[4] = molecular target: mutant form of EGFR (T790M) (Homo sapiens (Human), UniProt P00533, T790M); test: LanthaScreen Eu Kinase Binding Assay, EGFR T790M; conditions: tracer displacement
Experimental: as §1

BTK kinase = BTK kinase (Homo sapiens (Human), UniProt Q06187); test: BTK kinase assay: time resolved-FRET (HTRF) assay; type: biochemical; conditions: 10 nM BTK, 60 μM ATP, 1 μM substrate, 60 min
Experimental: The secondary assay was a time resolved-FRET kinase assay. Test compound are diluted to desired concentrations in kinase reaction buffer and briefly incubated with BTK kinase (as described above; Invitrogen). The reaction is initiated by the addition of ATP and enzyme substrate, HTRF® KinEASE™-TK Substrate-biotin (Cisbio US, Bedford, Mass.). The composition of the reaction (10 μl) was: 1% v/v DMSO, 10 nM BTK, 60 μM ATP, and 1 μM substrate. After incubation at room temperature for 60 min, the enzyme reaction is stopped by EDTA-containing buffer, which also contains europium-labeled (Eu^3+-Cryptate) anti-phosphotyrosine antibody (Cisbio) and Streptavidin-XL665 (Cisbio). The europium-labeled antibody generates a time-resolved FRET signal with the Stepavidin-XL665, which binds to the biotinylated TK substrate through the streptavidin conjugate when the substrate is phosphorylated. After one hour incubation at room temperature, fluorescence was measured with excitation of 320 nm and dual emission of 615 and 665 nm on an EnVision microplate reader.
(§4) IC50 values are determined using GraphPad Prism 5 software. The data were entered as an X-Y plot into the software as percent inhibition for each concentration of the drug. The concentration values of the drug were log transformed and the nonlinear regression was carried out using the “sigmoidal dose-response (variable slope)” option within the GraphPad software to model the data and calculate IC50 values. The IC50 values reported are the concentration of drug at which 50% inhibition was reached.

Ramos RA-1 = test: Cell viability assay (ATP-lite), Ramos RA-1; type: cell-based; conditions: Homo sapiens, 96 hours
Experimental: (§5) All cell lines were cultured in RPMI-1640 media supplemented with 10% fetal bovine serum (“FBS”) and 1% penicillin/streptomycin (100 IU/mL penicillin and 100 μg/mL streptomycin) at 37° C. and 5% CO2. ATCC is the American Type Culture Collection (Manassas, Va.), and DSMZ is the Deutsche Sammlung von Mikroorganismen and Zellkulturen GmbH (German Collection of Microorganims and Cell Cultures; Braunschweig, Germany). The cell lines typically used in these studies are indicated below in Table II.
as §2, §4
The ability of compounds to inhibit the viability of cultured cells was determined using the cell viability assay described above. Activity data for representative compounds is shown below in Table III below for the compounds tested using the indicated cell lines (Ramos RA-1, GRANTA-519, and BxPC-3). IC50 values were determined as described above. If an IC50 is indicated as “n.d.”, it was not determined in the indicated cell line.

BxPC-3 = test: Cell viability assay (ATP-lite), BxPC-3; type: cell-based; conditions: Homo sapiens, 96 hours
Experimental: as §5
(§6) The cells were grown as described above, and for the assay cells were freshly harvested and then were plated in […] of appropriate media (as described above) at a density of 1000 cells per well in standard solid white-walled 384-well plates. Cells were allowed to attach by incubation overnight at 37° C. and 5% CO2. […] At the end of the incubation, […] of ATP-lite (PerkinElmer, Inc., Waltham, Mass.) reagent were added to each well and luminescence signal was measured on an EnVision microplate reader.
(§7) IC50 values are determined using GraphPad Prism 5 software. […]
(§8) The ability of compounds to inhibit the viability of cultured cells was determined using the cell viability assay described above. […] IC50 values were determined as described above. If an IC50 is indicated as “n.d.”, it was not determined in the indicated cell line.

[5] = molecular target: recombinant full-length human BTK kinase (Homo sapiens (Human), UniProt Q06187); test: BTK kinase assay: ADP generation assay; type: biochemical; conditions: 60 nM BTK, 1.6 μM ATP, 20 μM MBP substrate, 60 min
Experimental: Test compounds were diluted to desired concentrations in kinase reaction buffer and briefly incubated with recombinant full-length human BTK kinase with a (His)6 tag (81.3 kDa; Invitrogen Corporation, Carlsbad, Calif.). The assay as described is based on volumes used in a standard 384 well format using solid, white-wall plates. The reaction was subsequently initiated by the addition of ATP and myelin basic protein (MBP) substrate (Millipore Corporation, Waltham, Mass.). Composition of the assay reaction mixture ([…]) was: 5% v/v DMSO, 60 nM BTK, 1.6 μM ATP, and 20 μM MBP substrate. After incubation at room temperature for 60 min, […] (Promega Corporation, Madison, Wis.) was added to each well and incubated for an additional 40 minutes. The reagent stopped the kinase reaction and depleted the unconsumed ATP. Kinase Detection reagent ([…]; Promega Corporation) was then added to each well. The Kinase Detection reagent comprises reagents to convert ADP to ATP and provide luciferase and luciferin to detect ATP. Luminescence was measured on an EnVision microplate reader (PerkinElmer). The amount of luminescence from each reaction is directly correlated with BTK kinase activity. Percent inhibition and IC50 values were calculated by comparing enzyme activity in drug-treated wells to the appropriate controls.
as §4

GRANTA-519 = test: Cell viability assay (ATP-lite), GRANTA-519; type: cell-based; conditions: Homo sapiens, 96 hours
Experimental: as §5, §6, §7, §8

Chain of BTK kinase (Q06187 whole entry): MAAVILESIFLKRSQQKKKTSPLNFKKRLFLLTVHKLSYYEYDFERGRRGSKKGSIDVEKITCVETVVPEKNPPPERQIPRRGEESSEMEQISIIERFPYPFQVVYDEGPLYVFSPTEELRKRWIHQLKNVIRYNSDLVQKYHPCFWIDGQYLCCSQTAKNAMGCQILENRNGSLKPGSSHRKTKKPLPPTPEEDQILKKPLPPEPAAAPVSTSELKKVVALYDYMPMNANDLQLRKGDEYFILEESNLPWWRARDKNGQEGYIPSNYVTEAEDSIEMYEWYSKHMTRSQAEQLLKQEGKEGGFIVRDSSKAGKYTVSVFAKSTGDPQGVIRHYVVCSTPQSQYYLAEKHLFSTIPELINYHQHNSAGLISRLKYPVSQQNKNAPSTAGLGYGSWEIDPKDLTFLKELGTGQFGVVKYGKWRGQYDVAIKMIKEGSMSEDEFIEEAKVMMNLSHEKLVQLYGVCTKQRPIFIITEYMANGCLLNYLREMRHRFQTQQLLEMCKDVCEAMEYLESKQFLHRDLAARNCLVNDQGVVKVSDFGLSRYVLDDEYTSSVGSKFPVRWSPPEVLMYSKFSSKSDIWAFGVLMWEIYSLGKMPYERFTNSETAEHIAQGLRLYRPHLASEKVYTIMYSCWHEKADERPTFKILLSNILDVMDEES
Chain of recombinant full-length human BTK kinase (Q06187 whole entry): as above
Chain of wild-type EGFR (ErbB1) (P00533 25-1210): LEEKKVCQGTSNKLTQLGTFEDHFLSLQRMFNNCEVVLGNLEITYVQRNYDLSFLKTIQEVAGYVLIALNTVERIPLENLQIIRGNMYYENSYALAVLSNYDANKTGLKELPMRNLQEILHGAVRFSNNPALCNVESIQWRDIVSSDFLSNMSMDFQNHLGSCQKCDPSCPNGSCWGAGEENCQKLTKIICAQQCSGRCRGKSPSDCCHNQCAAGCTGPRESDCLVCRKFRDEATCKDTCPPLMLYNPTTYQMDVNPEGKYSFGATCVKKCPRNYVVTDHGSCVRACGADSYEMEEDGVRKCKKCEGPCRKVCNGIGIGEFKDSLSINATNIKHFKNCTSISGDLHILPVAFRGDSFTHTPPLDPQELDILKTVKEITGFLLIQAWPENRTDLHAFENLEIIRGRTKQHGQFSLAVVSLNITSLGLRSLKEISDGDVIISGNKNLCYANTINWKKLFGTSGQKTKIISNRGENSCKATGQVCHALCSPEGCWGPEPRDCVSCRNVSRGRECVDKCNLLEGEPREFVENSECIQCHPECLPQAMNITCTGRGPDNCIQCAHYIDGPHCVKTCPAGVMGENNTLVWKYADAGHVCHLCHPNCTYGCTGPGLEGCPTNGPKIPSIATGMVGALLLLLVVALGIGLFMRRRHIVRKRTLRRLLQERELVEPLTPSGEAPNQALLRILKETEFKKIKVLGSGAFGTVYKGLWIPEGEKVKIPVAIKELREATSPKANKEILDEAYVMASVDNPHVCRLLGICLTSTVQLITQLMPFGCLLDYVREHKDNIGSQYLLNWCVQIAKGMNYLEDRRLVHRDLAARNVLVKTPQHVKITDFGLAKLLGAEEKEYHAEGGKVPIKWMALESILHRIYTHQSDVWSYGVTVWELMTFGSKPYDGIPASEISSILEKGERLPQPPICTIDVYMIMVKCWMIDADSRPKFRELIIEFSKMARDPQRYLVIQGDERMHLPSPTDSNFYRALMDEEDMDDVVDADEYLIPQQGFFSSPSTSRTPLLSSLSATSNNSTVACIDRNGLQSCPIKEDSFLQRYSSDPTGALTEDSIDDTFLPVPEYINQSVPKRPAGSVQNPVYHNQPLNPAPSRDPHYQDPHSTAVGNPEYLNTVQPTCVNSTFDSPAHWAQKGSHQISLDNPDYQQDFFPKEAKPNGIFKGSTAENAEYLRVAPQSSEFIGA
Chain of mutant form of EGFR (T790M) (P00533 25-1210 T790M): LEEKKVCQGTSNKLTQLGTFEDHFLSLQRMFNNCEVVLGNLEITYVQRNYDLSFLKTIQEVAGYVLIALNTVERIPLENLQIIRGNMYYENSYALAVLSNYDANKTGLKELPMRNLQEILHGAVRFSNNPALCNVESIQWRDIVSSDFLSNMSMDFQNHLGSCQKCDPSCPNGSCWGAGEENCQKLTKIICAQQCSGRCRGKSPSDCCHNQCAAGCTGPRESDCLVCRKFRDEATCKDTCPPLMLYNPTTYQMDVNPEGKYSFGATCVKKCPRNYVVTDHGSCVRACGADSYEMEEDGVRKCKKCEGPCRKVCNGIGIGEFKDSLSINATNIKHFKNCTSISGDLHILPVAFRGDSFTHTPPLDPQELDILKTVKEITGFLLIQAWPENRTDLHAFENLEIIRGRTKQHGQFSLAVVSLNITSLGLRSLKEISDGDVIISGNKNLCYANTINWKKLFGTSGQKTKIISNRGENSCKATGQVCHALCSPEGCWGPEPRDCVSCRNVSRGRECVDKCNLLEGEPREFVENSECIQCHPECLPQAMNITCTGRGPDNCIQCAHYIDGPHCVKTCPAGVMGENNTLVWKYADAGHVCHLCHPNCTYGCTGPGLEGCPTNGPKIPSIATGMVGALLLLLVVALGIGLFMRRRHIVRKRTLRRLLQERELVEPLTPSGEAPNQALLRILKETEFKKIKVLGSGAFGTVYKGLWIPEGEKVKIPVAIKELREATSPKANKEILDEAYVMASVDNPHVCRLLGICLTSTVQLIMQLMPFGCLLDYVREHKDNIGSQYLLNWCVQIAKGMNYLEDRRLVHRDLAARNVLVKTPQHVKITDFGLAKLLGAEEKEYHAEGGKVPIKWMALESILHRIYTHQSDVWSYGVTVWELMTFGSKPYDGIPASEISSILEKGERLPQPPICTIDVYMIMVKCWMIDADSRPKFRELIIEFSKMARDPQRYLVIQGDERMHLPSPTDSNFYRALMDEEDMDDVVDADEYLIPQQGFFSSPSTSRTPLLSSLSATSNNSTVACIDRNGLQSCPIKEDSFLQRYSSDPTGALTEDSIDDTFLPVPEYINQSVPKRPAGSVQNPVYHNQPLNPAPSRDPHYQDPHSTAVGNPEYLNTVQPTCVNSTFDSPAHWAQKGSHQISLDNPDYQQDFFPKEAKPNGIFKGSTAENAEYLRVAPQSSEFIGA

C=CC(=O)Nc1cccc(-c2nc(Nc3ccc(N4CCOCC4)cc3)ncc2Cl)c1 [N-(3-(5-chloro-2-((4-morpholinophenyl)amino)pyrimidin-4-yl)phenyl)acrylamide]
IC50 (wild-type EGFR (ErbB1)): 253 nM | IC50 [1]: ~586 nM | IC50 (OPM2 cells): ~5050 nM | dwell time, bone marrow compared to plasma [2]: higher in the bone marrow compared to plasma | plasma concentrations [2]: high plasma concentrations | time after which compound cleared in the elimination phase [2]: > 10 min | fold lower concentration in bone marrow than in plasma ([2]; mouse, bone marrow (femur) versus plasma, read-out: concentration in bone marrow compartment compared to plasma levels (fold less)): ~50 | half-life ([2]; mouse, plasma): ~45 min | percent inhibition in kinase profiling [3]: good activity

C=CC(=O)Nc1cccc(-c2nc(Nc3ccc(N4CCOCC4)cc3)nc3[nH]ncc23)c1 [N-(3-(6-((4-morpholinophenyl)amino)-1H-pyrazolo[3,4-d]pyrimidin-4-yl)phenyl)acrylamide]
IC50 [4]: 2.67 nM | IC50 (wild-type EGFR (ErbB1)): 105 nM

C=CC(=O)Nc1cccc(-c2nc(Nc3ccc(N4CCOCC4)cc3)nc3[nH]ncc23)c1 [compound 1]
IC50 (BTK kinase): 0.045 µM | IC50 (Ramos RA-1): > 30 µM | IC50 (BxPC-3): 7 µM | IC50 [5]: 0.079 µM

C=CC(=O)Nc1cccc(-c2nc(Nc3ccc(N4CCN(C)CC4)cc3)nc3[nH]ncc23)c1 [compound 2]
IC50 (Ramos RA-1): 18.8 µM | IC50 (GRANTA-519): 13.7 µM

C=CC(=O)Nc1cccc(-c2nc(Nc3ccc(N4CCOCC4)c(F)c3)nc3[nH]ncc23)c1 [compound 3]
IC50 (BTK kinase): 0.126 µM | IC50 [5]: 0.23 µM

C=CC(=O)Nc1cccc(-c2nc(Cl)nc3[nH]ncc23)c1 [compound 4]
IC50 (BTK kinase): 3.77 µM | IC50 (Ramos RA-1): > 30 µM | IC50 (GRANTA-519): > 30 µM | IC50 [5]: 0.263 µM

C=CC(=O)Nc1cccc(-c2nc(Cl)ncc2Nc2ccccc2)c1 [compound 5]
IC50 [5]: 1.81 µM

C=CC(=O)Nc1cccc(-c2nc(Nc3ccc(N4CCOCC4)cc3)ncc2Nc2ccccc2)c1 [compound 6]
IC50 [5]: > 100 µM

C=CC(=O)Nc1cccc(-c2nc(Nc3ccc(N4CCOCC4)c(F)c3)ncc2Cl)c1 [compound 7]
IC50 (BTK kinase): 0.287 µM | IC50 [5]: 0.518 µM

C=CC(=O)Nc1cccc(-c2nc(Nc3ccc(N4CCOCC4)cc3)ncc2Cl)c1 [compound 8]
IC50 (BTK kinase): 0.047 µM | IC50 (Ramos RA-1): 20.9 µM | IC50 (BxPC-3): 22.2 µM | IC50 [5]: 0.033 µM

C=CC(=O)Nc1cccc(-c2nc(Nc3ccc(N4CCN(C)CC4)cc3)ncc2Cl)c1 [compound 9]
IC50 [5]: 1.27 µM

C=CC(=O)Nc1cccc(-c2nc(Cl)ncc2Br)c1 [compound 10]
IC50 [5]: 4.7 µM

C=CC(=O)Nc1cccc(-c2nc(Cl)ncc2Cl)c1 [compound 11]
IC50 [5]: 14.4 µM

C=CC(=O)Nc1cccc(-c2nc(Cl)ncc2Nc2cccc(F)c2)c1 [compound 12]
IC50 [5]: 0.829 µM
